Assay results from US10221163B2 (priority 2015, dated 2019).

Legend:
IMP-1 = IMP-1 (Serratia marcescens, UniProt P52699); test: biochemical; format: biochemical; conditions: fluorescence assay, CCF2-FA substrate, 2 pM enzyme, 2 hours at 25° C.; read-out: IMP-1 IC50
Description: (§1) Enzyme Activity: Determination of IC50
(§2) The Class B enzyme activities were measured in the presence of the test inhibitor in a fluorescence assay against a commercially available substrate consisting of a cephalosporin core linking 7-hydroxycoumarin to fluorescein (CCF2-FA). […] In a 384-well microplate, the test inhibitor was incubated with the metallo-β-lactamase enzyme and the substrate for 2 hours at 25° C. […] The IC50 value was determined from semi-logarithmic plots of enzyme inhibition versus inhibitor concentration, with a curve generated using a 4-parameter fit.

NDM-1 = NDM-1 (Klebsiella pneumoniae, UniProt C7C422); test: biochemical; format: biochemical; conditions: fluorescence assay, CCF2-FA substrate, 1 pM enzyme, 2 hours at 25° C.; read-out: NDM-1 IC50
Sequence of NDM-1 (C7C422 whole entry, looked up, species assumed): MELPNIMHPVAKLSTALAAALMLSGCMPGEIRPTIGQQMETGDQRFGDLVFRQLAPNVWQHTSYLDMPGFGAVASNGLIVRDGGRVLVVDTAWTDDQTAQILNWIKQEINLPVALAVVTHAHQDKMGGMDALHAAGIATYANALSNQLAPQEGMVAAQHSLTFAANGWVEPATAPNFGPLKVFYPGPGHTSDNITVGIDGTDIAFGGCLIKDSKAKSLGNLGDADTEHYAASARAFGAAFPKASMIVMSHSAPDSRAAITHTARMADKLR
Description: as §1, §2

[1] = tested on: Escherichia coli expressing NDM-1 (CLB30005, CLB30016); format: cell-based; conditions: with imipenem 1 μg/ml; for Escherichia coli expressing NDM-1 (CLB30016) MITC95: 95% inhibition of bacterial growth; for Escherichia coli MITC95: NDM-1 strain, 95% inhibition of growth
Description: (§3) Antibiotic Potentiation Activity: Determination of Synergistic Concentration
(§4) The bacterial strains tested included the clinical strains Escherichia coli expressing NDM-1 (CLB30005, CLB30016), Serratia marcescens expressing IMP-1 (CL5741), and Klebsiella pneumoniae expressing VIM-1 (IHMA599644). Inhibitor activity was measured in the presence and absence of imipenem in a 384-well microplate.
(§5) The clinical strains CLB30016, CL5741 and IHMA599644 were grown on trypticase soy agar containing 5% sheep's blood. The bacteria on agar plates were incubated at 35° C. with humidity overnight. The following day, individual colonies from each clinical strain were picked and resuspended in 5 ml saline to attain an OD600 of […], for CLB30016, CL5741 and IHMA599644, respectively. These were further diluted 1:100 into 1.1×CAMHB and used to inoculate the test wells as described below.
(§6) Imipenem in 10 mM 3-(N-morpholino)propanesulfonic acid (MOPS, pH 7) was stored in single use aliquots at −80° C. […] On the day of the assay, 4 μl of antibiotic was added to 45 ul of bacteria followed by 1 μl of test compound and mixed by pipetting and with an orbital shaker. The concentration of antibiotic used in the assay was 1 μg/ml. Microplates were covered and incubated at 35° C. for 22 hours to 24 hours. At the end of the incubation, absorbance was determined using a spectrophotometer.

[2] = tested on: Klebsiella pneumoniae expressing VIM-1 (IHMA599644); format: cell-based; conditions: for Klebsiella pneumoniae expressing VIM-1 (IHMA599644) MITC95: with imipenem 1 μg/ml, 95% inhibition of bacterial growth; for Klebsiella pneumoniae MITC95: VIM-1 strain IHMA599644, with imipenem 1 μg/ml, 95% inhibition of growth
Description: as §3, §4, §5, §6

[3] = tested on: Serratia marcescens expressing IMP-1 (CL5741); format: cell-based; conditions: for Serratia marcescens expressing IMP-1 (CL5741) MITC95: with imipenem 1 μg/ml, 95% inhibition of bacterial growth; for Serratia marcescens MITC95: IMP-1 strain CL5741, with imipenem 1 μg/ml, 95% inhibition of growth
Description: as §3, §4, §5, §6

[4] = tested on: Pseudomonas aeruginosa efflux+ (MB9798), IMP-1; format: cell-based; conditions: concentration restoring susceptibility to imipenem at 2 μg/mL in the presence of a class A, C, D serine β-lactamase inhibitor closely related to relebactam
Description: (§7) The strain background was Pseudomonas aeruginosa PAO1.
(§8) The strain set was then used as a pair to determine the effect of metallo-β-lactamase inhibitors of Formula I on the MIC of imipenem and/or ceftazidime. A fixed concentration of antibiotic was included in standard microbroth MIC tests, usually at the CLSI (Clinical and Laboratory Standards Institute) breakpoint concentration. A fixed amount of a class A/C beta-lactamase inhibitor was also included to inhibit the resident Pseudomonas AmpC enzyme. A serial titration of the metallo-β-lactamase inhibitor was included and the concentration of metallo-β-lactamase inhibitor which restores susceptibility of the strain to the included antibiotic was recorded. That concentration of metallo-β-lactamase inhibitor was then compared between the two strains to determine the fold difference between the efflux+ (MB9798) and efflux− (MB9799) strains. This was taken as an indication of the extent to which the MBLi is subject to efflux.

[5] = tested on: Pseudomonas aeruginosa efflux− (MB9799), IMP-1; format: cell-based; conditions: concentration restoring susceptibility to imipenem at 2 μg/mL in the presence of a class A, C, D serine β-lactamase inhibitor closely related to relebactam
Description: as §7, §8

Sequence of IMP-1 (P52699 whole entry, looked up, species assumed): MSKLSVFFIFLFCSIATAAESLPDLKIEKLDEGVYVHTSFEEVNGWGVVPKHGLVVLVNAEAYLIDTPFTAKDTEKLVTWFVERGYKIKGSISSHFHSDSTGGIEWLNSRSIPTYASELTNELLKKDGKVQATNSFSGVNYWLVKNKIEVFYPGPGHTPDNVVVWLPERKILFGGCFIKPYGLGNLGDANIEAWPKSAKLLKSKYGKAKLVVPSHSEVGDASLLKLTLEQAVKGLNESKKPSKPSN

| SMILES | IC50 (IMP-1) | IC50 (NDM-1) | Escherichia coli expressing NDM-1 (CLB30016) MITC95 [1] | Klebsiella pneumoniae expressing VIM-1 (IHMA599644) MITC95 [2] | Serratia marcescens expressing IMP-1 (CL5741) MITC95 [3] | P. aeruginosa expressing IMP-1, efflux + (MB9798) MITC95 [4] | P. aeruginosa expressing IMP-1, efflux − (MB9799) MITC95 [5] | Escherichia coli MITC95 [1] | Klebsiella pneumoniae MITC95 [2] | Serratia marcescens MITC95 [3] |
| --- | --- | --- | --- | --- | --- | --- | --- | --- | --- | --- |
| Nc1nc2c(-c3ccc(S(=O)(=O)NCCN4CCC4)c(S(N)(=O)=O)c3-c3nnn[nH]3)cccc2s1 [Example 21, 4-(2-amino-1,3-benzothiazol-4-yl)-N1-(2-azetidin-1-ylethyl)-3-(1H-tetrazol-5-yl)benzene-1,2-disulfonamide] | 383 pM | 64.2 pM | 6.25 µM | 6.25 µM | 3.125 µM | 1.563 µM | 1.563 µM | – | – | – |
| Nc1nc2c(-c3ccc(S(=O)(=O)NCCN4CCCCC4=O)c(S(N)(=O)=O)c3-c3nnn[nH]3)cccc2s1 [Example 33, 4-(2-amino-1,3-benzothiazol-4-yl)-N1-[2-(2-oxopiperidin-1-yl)ethyl]-3-(1H-tetrazol-5-yl)benzene-1,2-disulfonamide] | 275 pM | 73.1 pM | 25 µM | 25 µM | 6.25 µM | 12.5 µM | 3.125 µM | – | – | – |
| CS(=O)(=O)C1CCN(S(=O)(=O)c2ccc(-c3cccc4sc(N)nc34)c(-c3nnn[nH]3)c2S(N)(=O)=O)C1 (centres unmarked) [Example 45, 3-(2-amino-1,3-benzothiazol-4-yl)-6-{[3-(methylsulfonyl)pyrrolidin-1-yl]sulfonyl}-2-(1H-tetrazol-5-yl)benzenesulfonamide] | 1650 pM | – | 50 µM | 25 µM | 6.25 µM | 25 µM | 3.125 µM | – | – | – |
| Nc1nc2c(-c3ccc(S(=O)(=O)N[C@H]4C[C@H](N)C4)c(S(N)(=O)=O)c3-c3nnn[nH]3)cccc2s1 [Example 71, 4-(2-amino-1,3-benzothiazol-4-yl)-N^1-(trans-3-aminocyclobutyl)-3-(1H-tetrazol-5-yl)benzene-1,2-disulfonamide] | – | 61.2 pM | 1.563 µM | 3.125 µM | 3.125 µM | 1.563 µM | 1.563 µM | – | – | – |
| Nc1nc2c(-c3ccc(S(=O)(=O)NCC4(N)CCOC4)c(S(N)(=O)=O)c3-c3nnn[nH]3)cccc2s1.O=CO (centres unmarked) [Example 114, 3-((4-(2-aminobenzo[d]thiazol-4-yl)-2-sulfamoyl-3-(1H-tetrazol-5-yl)phenylsulfonamido)methyl)tetrahydrofuran-3-aminium formate] | – | 64.9 pM | 3.125 µM | 6.25 µM | 3.125 µM | 3.125 µM | 3.125 µM | – | – | – |
| Nc1nc2c(-c3ccc(S(=O)(=O)NC[C@]4(F)CCCNC4)c(S(N)(=O)=O)c3-c3nnn[nH]3)cccc2s1.O=CO [Example 122, (S)-3-(((4-(2-aminobenzo[d]thiazol-4-yl)-2-sulfamoyl-3-(1H-tetrazol-5-yl)phenyl)sulfonamido)methyl)-3-fluoropiperidin-1-ium formate] | 282 pM | 32.9 pM | 1.563 µM | 3.125 µM | 1.563 µM | 3.125 µM | 1.563 µM | – | – | – |
| CN(C)C(=O)c1ccccc1-c1ccc(S(=O)(=O)N[C@@H]2CCNC2)c(S(N)(=O)=O)c1-c1nnn[nH]1 [Example 129, (R)-N,N-dimethyl-4′-(N-(pyrrolidin-3-yl)sulfamoyl)-3′-sulfamoyl-2′-(1H-tetrazol-5-yl)-[1,1′-biphenyl]-2-carboxamide] | 9080 pM | 278 pM | 6.25 µM | 12.5 µM | 6.25 µM | 12.5 µM | 3.125 µM | – | – | – |
| Nc1nc2c(-c3ccc(S(=O)(=O)N[C@@H]4CCNC4)c(S(N)(=O)=O)c3-c3nnn[nH]3)cc(F)cc2[nH]1 [Example 181, (R)-4-(2-amino-6-fluoro-1H-benzo[d]imidazol-4-yl)-N^1-(pyrrolidin-3-yl)-3-(1H-tetrazol-5-yl)benzene-1,2-disulfonamide] | 273 pM | 37.2 pM | 0.3906 µM | 1.563 µM | 0.7813 µM | 0.3906 µM | 0.7813 µM | – | – | – |
| N=C(N)c1nc2c(-c3ccc(S(N)(=O)=O)c(S(N)(=O)=O)c3-c3nn[nH]n3)cccc2s1 [Example 192, 4-(3,4-disulfamoyl-2-(2H-tetrazol-5-yl)phenyl)benzo[d]thiazole-2-carboximidamide] | 699 pM | 274 pM | 1.563 µM | 1.563 µM | 0.7813 µM | 1.563 µM | 0.7813 µM | – | – | – |
| Nc1ccc(-c2ccc(S(=O)(=O)NCCc3c[nH]cn3)c(S(N)(=O)=O)c2-c2nn[nH]n2)cn1 [Example 217, N^1-(2-(1H-imidazol-4-yl)ethyl)-4-(6-aminopyridin-3-yl)-3-(2H-tetrazol-5-yl)benzene-1,2-disulfonamide] | – | 447 pM | 0.3906 µM | 3.125 µM | 1.563 µM | 12.5 µM | 1.563 µM | – | – | – |
| C[N+]1(C)CC(NS(=O)(=O)c2ccc(-c3cccc4[nH]c(N)nc34)c(-c3nn[nH]n3)c2S(N)(=O)=O)C1.O=C([O-])O [Example 245, 3-(4-(2-Amino-1H-benzo[d]imidazol-4-yl)-2-sulfamoyl-3-(2H-tetrazol-5-yl)phenylsulfonamido)-1,1-dimethylazetidin-1-ium hydrogencarbonate] | – | – | – | – | – | 1.563 µM | 1.563 µM | 0.7813 µM | 3.125 µM | 1.563 µM |
| Nc1ncc(-c2ccc(S(=O)(=O)N[C@@H]3CCNC3)c(S(N)(=O)=O)c2-c2nn[nH]n2)s1 [Example 284] | 411 pM | – | – | – | – | 0.7813 µM | 0.7813 µM | 1.563 µM | 1.563 µM | 0.7813 µM |
